Assay results reported in EP2608671B1, “COMPOUNDS FOR TREATMENT OF CANCER” (Gtx, Inc., priority 2010, dated 2012).
Values after ≈ are worked out from the molar mass of the structure shown. Read-outs that look alike come from different tables or passages of the source.

What was measured:
B16-F1 = test: SRB cell growth inhibition (cytotoxicity) assay; assay type: cell-based, mouse; settings: Mus musculus, B16-F1, SRB assay; Tables 1, 2, 3, 5B, 5C; read-out: IC50 ± SEM (nM), B16-F1
Description: (§1) The only compounds which belong to the invention are the ones falling under the scope of formula (XI).

A375 = test: SRB cell growth inhibition (cytotoxicity) assay; assay type: cell-based, human; settings: Homo sapiens
WM-164 = test: SRB cell growth inhibition (cytotoxicity) assay; assay type: cell-based, human; settings: Homo sapiens
PC-3 = test: cells
Description: as §1
Cells were stained with SRB solution.
Cells. […] Cells between the third and fifth passages were used for experiments.
Cell growth inhibition studies. […] Cells were stained with sulphorhodamine B (SRB) solution.

OVCAR-8 = test: SRB growth inhibition, MDR model parent line; assay type: cell-based, human; settings: Homo sapiens
Bovine brain tubulin = test: In vitro tubulin polymerization assay; assay type: biochemical; settings: 10 µM
Description: (§2) In Vitro Tubulin Polymerization Assay.
as §2
In vitro microtubule polymerization assay.

[1] = system: tubulin (colchicine, vinblastine and paclitaxel binding sites); test: MS competitive binding assay
Description: MS competition binding assay. […] Each reaction was run in triplicate.

[2] = system: A375 human melanoma xenograft; test: In vivo antitumor efficacy, A375 melanoma xenograft; set-up: species or system mouse; settings: 2k 15 mg/kg i.p.
Protocol: DTIC at 60 mg/kg was used as a positive control again.
(§3) PC-3 and A375 tumor xenograft studies.
(§4) In vivo antitumor activity [tumor growth inhibition (% T/C), tumor growth delay (T-C value), and tumor cell kill (total log cell kill)].

[3] = system: PC-3 prostate tumor xenograft; test: In vivo antitumor efficacy, PC-3 xenograft; set-up: species or system mouse; settings: control 680 mm^3
Description: as §3, §4

PC-3 cells = test: In vivo drug resistance study (cells dissociated from PC-3 xenografts); assay type: cell-based; settings: Homo sapiens
[4] = for CL (mL/min/kg), systemic clearance / Vss (L/kg), volume of distribution: […] (1h, 2r), 5 mg/kg (5Ha, 5Hc)
DU 145 = test: cells; settings: Homo sapiens, DU-145, 96 h
LNCaP = test: cells; settings: Homo sapiens, 96 h, read-out: IC50 ± SEM (nM), LNCaP
PPC-1 = test: cells; settings: Homo sapiens, PPC-1, 96 h, read-out: IC50 ± SEM (nM), PPC-1
in vivo [5] = settings: mouse, ip
[6] = Rotarod test (in vivo neurotoxicity); settings: mouse
CaCO-2 = settings: human
[7] = system: HUVECs (Human Umbilical Vein Endothelial Cells); assay type: cell-based
T47D = assay type: cell-based, human
HUVEC monolayers = test: Endothelial monolayer permeability assay; assay type: cell-based, human; settings: leakage of dextran after 1, 2, 4 h
[8] = 90 min
in vivo [9] = settings: rat, plasma, po, 10 mg/kg
in vivo [10] = settings: mouse, po, 20 mg/kg
NCI/ADR-RES = test: SRB growth inhibition, P-gp over-expressing MDR line; assay type: cell-based, human
MDA-MB-435 = test: SRB growth inhibition, sensitive parent melanoma line; assay type: cell-based; settings: Homo sapiens, MDA-MB-435; parental cell line, n=3; read-out: IC50 ± SEM (nmol/L) MDA-MB-435
MDA-MB-435/LCC6MDR1 = test: SRB growth inhibition, multidrug-resistant melanoma line; assay type: cell-based; settings: MDA-MB-435/LCC6 MDR1; MDR1 overexpressed, n=3; read-out: IC50 ± SEM (nmol/L) MDA-MB-435/LCC6MDR1
MRP = test: Growth inhibition in MRP-mediated resistant cells (Table 14B); assay type: cell-based; settings: n=3
[11] = system: cancer and MDR cell lines with different resistance mechanisms; test: Growth inhibition in other cancer and MDR cell lines of Table 14B; assay type: cell-based; settings: n=3
WM-164 melanoma cells = test: Microtubule imaging (immunofluorescence); assay type: cell-based, human; settings: 18 h treatment
Description: Primary antibody for tubulin and fluorescence-labeled secondary antibody were subsequently added to the cells. Cell nuclei were stained by DAPI. Whole Cell Stain Green was also applied to all cells. All images were acquired with an Olympus IX71 inverted fluorescence microscope (Olympus Corp., Tokyo, Japan) with overlays from separate images of tubulin (red), nuclei (blue), and whole cells (green).

[12] = system: melanoma cell lines (A375, WM-164, B16-F1) and prostate cancer cell lines (LNCaP, DU 145, PC-3, PPC-1); test: SRB cytotoxicity, melanoma and prostate cell panel (averages); assay type: cell-based; settings: Prostate cell, read-out: IC50 range over tested melanoma and prostate cell lines
Description: as §1

[13] = Homo sapiens, PC-3, 96 h, read-out: IC50 ± SEM (nM), PC-3

With `COc1cc(C(=O)c2csc(-c3ccccc3)n2)cc(OC)c1OC` [1h, (2-Phenyl-thiazol-4-yl)-(3,4,5-trimethoxy-phenyl)-methanone] the IC50 (B16-F1) was 55 ± 5 nM, the IC50 (A375; A-375, 96 h, SRB assay, 96 h, Tables 1, 2, 3, 5B, 5C, read-out: IC50 ± SEM (nM), A375) was 28 ± 5 nM and the IC50 (WM-164; WM164, 96 h, SRB assay, 96 h, Table 2, read-out: IC50 ± SEM (nM), WM-164) was 64 ± 4 nM. It also gave an IC50 (PC-3; [13]) of 21 ± 1 nM, an IC50 (OVCAR-8; OVCAR-8, Table 5A, read-out: IC50 (nM), OVCAR-8) of 35 ± 2 nM and an inhibited tubulin polymerization (Bovine brain tubulin; 15 min, Figure 28B) of 90%. For the same compound, the tubulin polymerization inhibited (Bovine brain tubulin; 20 min incubation, compared to vehicle) was 47%, the “competition for tubulin binding sites” value [1] was “specifically competed with colchicine binding to tubulin” and the “% T/C” value ([2]; A375, 1h 20 mg/kg) was 28%. The tumor volume ([2]; A375, nude mice, 1h 20 mg/kg, 34 days, control 2183 mm^3) was 775 mm^3, the “Tumor volume by day 21” value ([3]; PC-3, 5 mg/kg i.p.) was 370 mm^3 and the “Tumor volume by day 21” value ([3]; PC-3, 15 mg/kg i.p.) was 176 mm^3. It also gave an IC50 (PC-3 cells; PC-3, PC-3 cells from ATCC) of 29.1 ± 1.1 nM, an IC50 (PC-3 cells; PC-3, dissociated cells from 1h treated tumors (15 mg/kg, 21 days)) of 30.4 ± 0.5 nM and an IC50 (PC-3 cells; PC-3, dissociated cells from vehicle treated tumors) of 29.1 ± 0.8 nM. For the same compound, the RatPK_IV5mgk_Cl ([4]; rat, IV, 2.5mpk) was 7.7 (2.5mpk) mL/min/kg, the “CL (mL/min/kg), systemic clearance” value ([4]; rat, IV) was 7.7 ± 1.0 mL/min/kg and the “Vss (L/kg), volume of distribution” value ([4]; rat, IV) was 4.9 ± 1.9 L/kg. It also gave a volume of distribution ([4]; rats, […] iv) of 7.6 L/kg, a clearance ([4]; rats, […] iv, Table 22) of 6 mL/min/kg and an IC50 (DU 145; read-out: IC50 ± SEM (nM), DU 145) of 71 ± 4 nM. For the same compound, the IC50 (LNCaP) was 28 ± 4 nM, the IC50 (PPC-1) was 43 ± 5 nM and the MTD at 96 h (in vivo [5]) was no less than 30 mg/kg. For the same compound, the “time on the rotating rod versus vehicle group” value [6] was “no significant difference”.
With `CC(C)NCC(O)COc1cccc2ccccc12` (stereo not drawn) [Propranolol] the “Papp(A→B) in CaCO-2 assay” value (CaCO-2) was “Propranolol (19) 10^-6 cm/s”.
With `COc1cccc2c1C(=O)c1c(O)c3c(c(O)c1C2=O)C[C@@](O)(C(=O)CO)C[C@@H]3O[C@H]1C[C@H](N)[C@H](O)[C@H](C)O1` [Doxorubicin] the IC50 (PC-3; read-out: IC50 PC3) was 397 nM, the “times more active against endothelial cells than against cancer cells” value ([7]; Table 24) was “not specific to endothelial cells” and the “Selectivity ratio*, cancer cells/ HUVEC” value ([7]; mean IC50 in PC3 and T47D cells over HUVEC) was 1.4. For the same compound, the IC50 ([7]; read-out: IC50 HUVEC) was 274 nM, the IC50 (T47D) was 353 nM and the “permeability of endothelial cell monolayer” value (HUVEC monolayers) was “did not induce any change”.
`COc1cc(C(=O)c2c[nH]c(-c3ccc(Cl)cc3)n2)cc(OC)c1OC` [12fa, (2-(4-Chlorophenyl)-1H-imidazol-4-yl)(3,4,5-trimethoxyphenyl)methanone] gave an IC50 (PC-3; [13]) of 35 ± 1 nM, an IC50 (OVCAR-8; OVCAR-8 cells, read-out: IC50 ± SEM (nM) OVCAR-8) of 47 nM and a Solubility ([8]; aqueous solubility) of 12 µg/mL (≈ 32.2 µM). It also gave an IC50 (DU 145; read-out: IC50 ± SEM (nM) Du 145) of 36 ± 0.4 nM, an IC50 (LNCaP) of 24 ± 1 nM and an IC50 (PPC-1) of 26 ± 0.2 nM. For the same compound, the AUC (in vivo [9]) was 3630 ng·h/mL, the Cmax (in vivo [9]) was 1110 ng/mL and the AUC (in vivo [10]) was 3350 ng·h/mL. For the same compound, the Cmax (in vivo [10]) was 2590 ng/mL.
With `COc1ccc(S(=O)(=O)Nc2cccnc2Nc2ccc(O)cc2)cc1` [ABT-751] the IC50 (A375; A-375, Table 14B, n=3, read-out: IC50 ± SEM (nmol/L) A375) was 685 ± 108 nM, the IC50 (WM-164; WM164, read-out: IC50 ± SEM (nM) (n=3), WM-164, Table 14A) was 661 ± 56 nM and the IC50 (WM-164; WM164, Table 14B, n=3, read-out: IC50 ± SEM (nmol/L) WM-164) was 661 ± 56 nM. The IC50 (OVCAR-8; OVCAR-8, parental cell line, n=3, read-out: IC50 ± SEM (nmol/L) OVCAR-8) was 785 ± 17 nM, the IC50 (NCI/ADR-RES; Homo sapiens, NCI/ADR-RES, MDR1 overexpressed, n=3, read-out: IC50 ± SEM (nmol/L) NCI/ADR-RES) was 864 ± 42 nmol/L and the IC50 (MDA-MB-435) was 417 ± 23 nmol/L. It also gave an IC50 (MDA-MB-435/LCC6MDR1) of 577 ± 31 nmol/L, an IC50 (MRP; MRP1 overexpressed, read-out: IC50 ± SEM (nmol/L) HEK293-MRP1) of 717 ± 28 nmol/L and an IC50 (MRP; MRP2 overexpressed, read-out: IC50 ± SEM (nmol/L) HEK293-MRP2) of 747 ± 7 nmol/L. For the same compound, the IC50 ([11]; A375MA2 cells, read-out: IC50 ± SEM (nmol/L) A375MA2) was 265 ± 36 nmol/L, the IC50 ([11]; Homo sapiens, HEK293-pcDNA3.1 parental cell line, read-out: IC50 ± SEM (nmol/L) HEK293 - pcDNA3.1) was 645 ± 153 nmol/L and the “effect on microtubules” value (WM-164 melanoma cells) was “microtubule fragmentation”.
For `COc1cc(C(=O)c2csc(-c3ccc(CN)cc3)n2)cc(OC)c1OC.Cl` [2r, (2-(4-(Aminomethyl)phenyl)thiazol-4-yl)(3,4,5-trimethoxyphenyl)methanone hydrochloride], the Resistance factor (NCI/ADR-RES; NCI/ADR-RES vs OVCAR-8, 5760 min) was 0.4, the IC50 [12] was 13 to 80 nM and the “solubility in PBS” value ([8]; PBS pH 7.4, Figure 18) was “over 35 µg/mL”. The “CL (mL/min/kg), systemic clearance” value ([4]; rat, IV) was 22 ± 13 mL/min/kg, the “Vss (L/kg), volume of distribution” value ([4]; rat, IV) was 0.33 ± 025 L/kg and the bioavailability (in vivo [9]) was 0.2%.
